US11433021B2, “Palonosetron for the treatment or prevention of nausea and vomiting” (ORION CORPORATION, priority 2018, dated 2022)

Experiments:
[1] = Bioavailability of palonosetron as ocular drops vs. intravenous administration; format: in vivo, Beagle dogs
Method: Experiment 1. Bioavailability of Palonosetron as Ocular Drops Vs. Intravenous Administration
Bioavailability of palonosetron as ocular drops at the dose of 30 μg/kg was compared to 10 μg/kg intravenous (i.v.) palonosetron in Beagle dogs (n=6). The study was a crossover study with 7 days washout period between the treatment periods. The animals were fasted overnight before dosing by withdrawing the remaining feed (if any) at least 12 h before dosing. On dosing days food was offered approximately at 4 h after dosing (after the 4 h blood sampling).
Palonosetron 30 μg/kg eye drops prepared according to Formulation Example 1 were administered in the eye using a micropipette in an amount of 10 μl/kg (approximately half volume in each eye).
Palonosetron 10 μg/kg intravenous dose was administered in cephalic vein in slow i.v. bolus dosed within 30 seconds.
Blood samples were collected into K2EDTA tubes over a 48 h period after each treatment at the following time points: predose, 5 min, 10 min, 20 min, 30 min, 45 min, 1 h, 1.5 h, 2 h, 4 h, 6 h, 8 h, 12 h, 24 h and 48 h post administration. Aliquots of plasma were prepared and stored frozen until analysis. Palonosetron concentration in plasma was determined using Liquid chromatography-triple quadrupole mass spectrometry. The lower limit of quantification for palonosetron in dog plasma was 0.02 ng/ml.

[2] = test system: cisplatin-induced nausea and vomiting; test: Efficacy of palonosetron eye drops in cisplatin-induced nausea and vomiting model; format: in vivo, Beagle dogs; details: n=6; for vomiting episodes: T0-T420 min
Method: Experiment 3. Efficacy of Palonosetron Eye Drops in Cisplatin-Induced Nausea and Vomiting Model Methods: Six non-naive adult male Beagle dogs were intravenously administered (2 ml/min) cisplatin at 18 mg/m^2 body surface over 20 min. Then, 45 min after the end of the infusion, the dogs received eye drops prepared according to Formulation Example 1 at 30 or 120 μg/kg of palonosetron or its vehicle (0.9% saline, 2% povidone) in a cross-over design. Then, the following parameters were recorded by blinded observers over 15 min periods from TO (end of the infusion of cisplatin) to 420 min (T420) after the end of the infusion of cisplatin: vomiting episodes and nausea-like behaviours including salivation, exaggerated swallowing motions, lip licking, lethargy, restlessness, and turning behaviour signalling that vomiting is imminent. In addition, a visual analogue scale (VAS) from 0 to 100 mm was used to assess the severity of the dogs' nausea-like behaviours (where a score of 0 mm=no nausea and a score of 100 mm=worst possible nausea).

[3] = 30 μg/kg ocular drops (Formulation Example 1), Beagle dogs

O=C1c2cccc3c2[C@H](CCC3)CN1[C@@H]1CN2CCC1CC2 [Palonosetron]
absorption [1, 3]: fast absorption comparable to intravenous administration | elimination phase [1, 3]: extended elimination phase | eye irritation [1, 3]: No significant eye irritation was seen | systemic exposure [1, 3]: good systemic exposure | bioavailability ([1]; dog, other: ocular drops (administered in the eye), 30 μg/kg ocular drops (Formulation Example 1) vs. 10 μg/kg i.v., Beagle dogs (n=6), plasma): 65.6% | vomiting episodes ([2]; 30 μg/kg eye drops (Formulation Example 1) 45 min after cisplatin 18 mg/m^2 i.v.): 1 vomiting episode in 2 dogs overall | VAS AUC (nausea) ([2]; 30 μg/kg eye drops (Formulation Example 1) after cisplatin 18 mg/m^2, mean±SEM): 320±268 mm*m | vomiting episodes ([2]; 120 μg/kg eye drops (Formulation Example 1) 45 min after cisplatin 18 mg/m^2 i.v.): inhibited vomiting totally | VAS AUC (nausea) ([2]; 120 μg/kg eye drops (Formulation Example 1) after cisplatin 18 mg/m^2, mean±SEM): 0±0 mm*m
